Data reported in US20240240145A1, “METHODS AND COMPOSITIONS FOR GENERATING MITOCHONDRIA REPLACED LYMPHOID CELLS” (Imel Biotherapeutics, Inc., priority 2021, published 2024).

How the values were obtained:
[1] = system: human GJ T cells; assay: TaqMan SNP assay of transfer of EPC100 mitochondria to human GJ T cells cultured with rapamycin; format: cell-based; details: for portion of donor mtDNA detected in T cells: after 7 days, EPC100 donor mitochondria
Description: Isolation and Cell Culture of Human T cells: Venous heparinized blood was taken according to the standard procedures from the median cubital vein. Human peripheral blood mononuclear cells (PBMC) were isolated from human peripheral blood using density-gradient centrifugation with 1.077 g/ml percoll (GE Healthcare Life Sciences, Buckinghamshire, England). Cells were cultured in TexMACS medium (Miltenyi Biotec) supplemented with 10% fetal bovine serum, 1% penicillin/streptomycin (Thermo Fisher Scientific incorporated), […] of IL-7, and […] of IL-15 on cell culture plates coated with anti-CD3 antibody and anti-CD28 antibody (Miltenyi Biotec). Cells were incubated at 37° C. in a humidified 5% CO2 incubator.
Mitochondrial Isolation and Transfer to Human T cells: The immortalized human uterine endometrial gland-derived mesenchymal cell line, EPC100 (Japanese Collection of Research Bioresources Cell Bank, JCRB1538) was used as an exemplary donor of exogenous mitochondria for mitochondrial transfer to human primary T cells by using the same protocol as that of murine protocol.
TaqMan Single Nucleotide Polymorphism (SNP) Assay: Based upon the differences in the mitochondrial HVR1 sequences of human GJ T cells and EPC100 cells, and the mitochondrial ND1 of B6 mouse and NZB mouse, the probes and primer set forth in Tables 1 and 2 were designed, which provide sensitivity and specificity in the TaqMan SNP assay. To determine mutation ratios, we designed wild-type and mutant allele-specific TaqMan probes for the TaqMan SNP assay. The extracted DNA (1 ng) was used for quantitative PCR with the TaqMan Universal PCR Master Mix kit (Thermo Fisher Scientific Incorporated) on a CFX connect real-time system (Bio-Rad Laboratories, Incorporated) under the following conditions: 40 cycles of PCR (95° ° C. for 15 see and 60° ° C. for 1 min) after initial denaturation (95° ° C. for 10 min). […] The mtDNA copy number was estimated from the content ratio of 12S rRNA on mtDNA and ACTB (or Actb) on nuclear DNA by delta cycle threshold-based relative quantification. […]

[2] = system: mouse NZB T cells; assay: TaqMan SNP assay of replacement of NZB T cell mtDNA with B6 MEF mtDNA after culture with rapamycin; format: cell-based; details: 40 μg B6 MEF mitochondria
Description: Isolation and Cell Culture of Primary Mouse T lymphocytes: All the animal experiments were performed according to the animal experiment guidelines issued by the Animal Care and Use Committee of our institution (M2019-536). For mouse T lymphocytes isolation, spleens were removed from mouse after anesthetized and sacrificed. Spleens were washed with PBS (FUJIFILM Wako Pure Chemical Corp.), then mashed and filtrated to extract splenocytes. Mouse T cells were highly purified from splenocytes by immunomagnetic negative selection using EasySep mouse T cell isolation kit (Veritas, Santa Clara, CA, USA) according to the manufacturer's recommendations. Isolated mouse T cells were cultured in Advanced RPMI1640 medium supplemented with 10% FBS, 1% penicillin/streptomycin, 20 mM L-glutamine (Thermo Fisher Scientific incorporated), […] recombinant human IL-2 (PeproTech, Rocky Hill, NJ, USA), which is activated with Dynabeads mouse T-activator CD3/CD28 (Thermo Fisher Scientific incorporated). Cells were incubated at 37 °C in a humidified 5% CO2 incubator.
Mitochondrial Isolation and Transfer to Mouse T cells: Mitochondria were isolated from B6 murine embryonic fibroblasts (MEF). […] The amounts of isolated mitochondria were expressed as protein concentration using a Bio-Rad protein assay kit (Bio-Rad Laboratories, incorporated, Richmond, CA, USA). […]

## CO[C@H]1C[C@@H]2CC[C@@H](C)[C@@](O)(O2)C(=O)C(=O)N2CCCC[C@H]2C(=O)O[C@H]([C@H](C)C[C@@H]2CC[C@@H](O)[C@H](OC)C2)CC(=O)[C@H](C)/C=C(\C)[C@@H](O)[C@@H](OC)C(=O)[C@H](C)C[C@H](C)/C=C/C=C/C=C/1C [rapamycin]
[1]; 50 nM rapamycin
  portion of donor mtDNA detected in T cells: less than 40%
[1]; 500 nM rapamycin
  portion of donor mtDNA detected in T cells: approximately 50%
[1]; human GJ T cells contacted with EPC100 donor mitochondria in the presence of rapamycin (50 to 500 nM), no mtDNA depletion, FIG. 3B
  mtDNA content in T cells consisting of mtDNA from EPC100 cells: 40-50%
[2]; centrifugation and two days of rapamycin treatment (100-1000 nM), FIG. 5A
  donor mtDNA in the recipient T cells: 45-80%
[2]; day 7, rapamycin 100-1000 nM, FIG. 5B
  donor mtDNA in the recipient T cells: 70-90%
